Data taken from EP4001279A1, “NOVEL SPIROPYRROLIDINE DERIVED ANTIVIRAL AGENTS” (Enanta Pharmaceuticals, Inc., priority 2020, dated 2022).

Tested on: 229E human corona virus (hCoV)
Assay: 229E live virus assay (CPE, ATPlite readout in MRC-5 cells)
Assay type: cell-based, hCoV-229E
Details: Human coronavirus 229E, MRC5, hCoV-229E live virus, MOI 0.05, ATPlite readout, run in duplicate

Structure (SMILES) | EC50
CN(C(=O)c1cc2c(F)cc(F)cc2[nH]1)[C@@H](CC1CCC1)C(=O)N1C[C@]2(C[C@H]1C#N)C(=O)Nc1ccccc12 [Example 91] | < 100 nM
COc1cccc2[nH]c(C(=O)N(C)[C@@H](CC3CCC3)C(=O)N3C[C@]4(C[C@H]3C#N)C(=O)Nc3ccccc34)cc12 [Example 92] | < 100 nM
CN(C(=O)c1cc2c(F)cccc2[nH]1)[C@@H](CC1CCC1)C(=O)N1C[C@]2(C[C@H]1C#N)C(=O)Nc1ccccc12 [Example 93] | < 100 nM
CCN(C(=O)c1cc2c(F)cccc2[nH]1)[C@@H](CC(C)C)C(=O)N1C[C@]2(C[C@H]1C#N)C(=O)Nc1ccccc12 [Example 95] | 100 to 1000 nM
C=CCN(C(=O)OCc1ccccc1)[C@@H](CC(C)C)C(=O)N1C[C@]2(C[C@H]1C#N)C(=O)Nc1ccccc12 [Example 96] | 100 to 1000 nM
CCCN(C(=O)OCc1ccccc1)[C@@H](CC(C)C)C(=O)N1C[C@]2(C[C@H]1C#N)C(=O)Nc1ccccc12 [Example 97] | > 1000 nM
CCCN(C(=O)c1cc2c(F)cccc2[nH]1)[C@@H](CC(C)C)C(=O)N1C[C@]2(C[C@H]1C#N)C(=O)Nc1ccccc12 [Example 98] | 100 to 1000 nM
CC(C)CC[C@@H](C(=O)N1C[C@]2(C[C@H]1C#N)C(=O)Nc1ccccc12)N(C)C(=O)OCc1ccccc1 [Example 100] | 100 to 1000 nM
CN(C(=O)OCc1ccccc1)[C@@H](CC1CC1)C(=O)N1C[C@]2(C[C@H]1C#N)C(=O)Nc1ccccc12 [Example 102] | > 1000 nM
CC(C)CC[C@@H](C(=O)N1C[C@]2(C[C@H]1C#N)C(=O)Nc1ccccc12)N(C)C(=O)c1cc2c(F)cc(F)cc2[nH]1 [Example 104] | < 100 nM
COc1cccc2[nH]c(C(=O)N(C)[C@@H](CCC(C)C)C(=O)N3C[C@]4(C[C@H]3C#N)C(=O)Nc3ccccc34)cc12 [Example 105] | < 100 nM
COc1cccc2[nH]c(C(=O)N(C)[C@@H](CC3CCCCC3)C(=O)N3C[C@]4(C[C@H]3C#N)C(=O)Nc3ccccc34)cc12 [Example 113] | < 100 nM
COc1cccc2[nH]c(C(=O)N(C)[C@@H](CC3CC3)C(=O)N3C[C@]4(C[C@H]3C#N)C(=O)Nc3ccccc34)cc12 [Example 114] | < 100 nM
CN(C(=O)c1cc2c(F)cc(F)cc2[nH]1)[C@@H](CC1CC1)C(=O)N1C[C@]2(C[C@H]1C#N)C(=O)Nc1ccccc12 [Example 115] | < 100 nM
CN(C(=O)c1cc2c(F)cccc2[nH]1)[C@@H](CC1CC1)C(=O)N1C[C@]2(C[C@H]1C#N)C(=O)Nc1ccccc12 [Example 116] | < 100 nM
COc1cccc2[nH]c(C(=O)N[C@@H](CC(C)C)C(=O)N3C[C@]4(C[C@H]3C=O)C(=O)N(C)c3ccccc34)cc12 [Example 119] | 100 to 1000 nM
COc1cccc2[nH]c(C(=O)N[C@@H](CC(C)C)C(=O)N3C[C@]4(C[C@H]3C#N)C(=O)N(C)c3ccccc34)cc12 [Example 120] | > 1000 nM
COc1cccc2[nH]c(C(=O)N(C)[C@@H](CC(C)C)C(=O)N3C[C@]4(C[C@H]3C#N)C(=O)N(C)c3ccccc34)cc12 [Example 121] | 100 to 1000 nM
CC(C)C[C@H](NC(=O)NCc1ccccc1)C(=O)N1C[C@]2(C[C@H]1C#N)C(=O)Nc1ccccc12 [Example 122] | 100 to 1000 nM
CC(C)(F)C[C@H](NC(=O)c1cc2c(F)cc(F)cc2[nH]1)C(=O)N1C[C@]2(C[C@H]1C#N)C(=O)Nc1ccc(Cl)cc12 [Example 123] | < 100 nM
CCCOC[C@H](NC(=O)c1cc2c(OC)cccc2[nH]1)C(=O)N1C[C@]2(C[C@H]1C#N)C(=O)Nc1ccccc12 [Example 126] | < 100 nM
C#CCOC[C@H](NC(=O)c1cc2c(OC)cccc2[nH]1)C(=O)N1C[C@]2(C[C@H]1C#N)C(=O)Nc1ccccc12 [Example 127] | < 100 nM

Structure (SMILES) | EC50
CC(C)(C)OC(=O)NC[C@H](NC(=O)c1cc2c(F)cc(F)cc2[nH]1)C(=O)N1C[C@]2(C[C@H]1C#N)C(=O)Nc1ccccc12 [Example 128] | > 1000 nM
N#C[C@@H]1C[C@@]2(CN1C(=O)[C@H](COCc1cnn[nH]1)NC(=O)c1cc3c(F)cc(F)cc3[nH]1)C(=O)Nc1ccccc12 [Example 129] | > 1000 nM
CC(C)(C)C[C@H](NC(=O)c1ccc2ncc(C(F)(F)F)cc2c1)C(=O)N1C[C@]2(C[C@H]1C#N)C(=O)Nc1ccccc12 [Example 134] | < 100 nM
Cc1cnc2ccc(C(=O)N[C@@H](CC(C)(C)C)C(=O)N3C[C@]4(C[C@H]3C#N)C(=O)Nc3ccccc34)cc2c1 [Example 135] | < 100 nM
CC(C)(C)C[C@H](NC(=O)c1ccc2ncc(C3CC3)cc2c1)C(=O)N1C[C@]2(C[C@H]1C#N)C(=O)Nc1ccccc12 [Example 136] | < 100 nM
CC(C)(C)C[C@H](NC(=O)c1cc(OC(F)(F)F)c2ncccc2c1)C(=O)N1C[C@]2(C[C@H]1C#N)C(=O)Nc1ccccc12 [Example 137] | < 100 nM
CC(C)(C)C[C@H](NC(=O)c1cc(Cl)c2ncccc2c1)C(=O)N1C[C@]2(C[C@H]1C#N)C(=O)Nc1ccccc12 [Example 138] | < 100 nM
CC(C)(C)C[C@H](NC(=O)c1cc(OC(F)F)c2ncccc2c1)C(=O)N1C[C@]2(C[C@H]1C#N)C(=O)Nc1ccccc12 [Example 139] | < 100 nM
CC(C)(C)C[C@H](NC(=O)c1cn(-c2ccc(Cl)cc2)nn1)C(=O)N1C[C@]2(C[C@H]1C#N)C(=O)Nc1ccccc12 [Example 140] | < 100 nM
CC(C)(C)C[C@H](NC(=O)c1cn(C2CC2)nn1)C(=O)N1C[C@]2(C[C@H]1C#N)C(=O)Nc1ccccc12 [Example 141] | < 100 nM
CC(C)(C)C[C@H](NC(=O)c1cn(-c2cccc(Cl)c2)nn1)C(=O)N1C[C@]2(C[C@H]1C#N)C(=O)Nc1ccccc12 [Example 142] | < 100 nM
CC(C)(C)C[C@H](NC(=O)c1cn(CC(F)(F)F)nn1)C(=O)N1C[C@]2(C[C@H]1C#N)C(=O)Nc1ccccc12 [Example 143] | < 100 nM
CC(C)(C)C[C@H](NC(=O)c1cnn(CC(F)(F)F)c1)C(=O)N1C[C@]2(C[C@H]1C#N)C(=O)Nc1ccccc12 [Example 144] | < 100 nM
CC(C)(C)C[C@H](NC(=O)c1cnn(-c2ccc(C(F)(F)F)cc2)c1)C(=O)N1C[C@]2(C[C@H]1C#N)C(=O)Nc1ccccc12 [Example 145] | < 100 nM
Cc1cc2cc(C(=O)N[C@@H](CC(C)(C)C)C(=O)N3C[C@]4(C[C@H]3C#N)C(=O)Nc3ccccc34)cc(Cl)c2nc1C [Example 147] | < 100 nM
CC(C)(C)C[C@H](NC(=O)c1cn(C2CCC2)nn1)C(=O)N1C[C@]2(C[C@H]1C#N)C(=O)Nc1ccccc12 [Example 148] | < 100 nM
CC(C)C[C@@H](C(=O)N1C[C@]2(C[C@H]1C=O)C(=O)Nc1ccccc12)N(C)C(=O)c1cc2c(F)cc(F)cc2[nH]1 [Example 149] | < 100 nM
CC(C)C[C@@H](C(=O)N1C[C@]2(C[C@H]1C=O)C(=O)Nc1ccccc12)N(C)C(=O)c1cc2c(F)cc(F)c(F)c2[nH]1 [Example 150] | < 100 nM
CC(C)C[C@@H](C(=O)N1C[C@]2(C[C@H]1C(O)S(=O)(=O)O)C(=O)Nc1ccccc12)N(C)C(=O)c1cc2c(F)cc(F)cc2[nH]1 (stereo partly shown) [Example 153] | < 100 nM
CC(C)C[C@@H](C(=O)N1C[C@]2(C[C@H]1C(O)S(=O)(=O)O)C(=O)Nc1ccccc12)N(C)C(=O)c1cc2c(F)cc(F)c(F)c2[nH]1 (stereo partly shown) [Example 154] | < 100 nM
CC(C)C[C@@H](C(=O)N1C[C@]2(C[C@H]1C(=O)C(=O)NC1CCCCC1)C(=O)Nc1ccccc12)N(C)C(=O)c1cc2c(F)cc(F)cc2[nH]1 [Example 155] | > 1000 nM
